From US11639350B2, “Heteroaryldihydropyrimidine derivatives and methods of treating hepatitis B infections” (Janssen Pharmaceutica NV, priority 2018, dated 2023)
Read-outs that look alike come from different tables or passages of the source.

What was measured:
HBV = HBV inhibitory activity: HBV DNA in the culture medium of HepG2.2.15 cells by q-PCR; type: cell-based; details: HepG2.2.15 cells, 6 days of compound treatment, HBV DNA in culture medium by q-PCR, highest concentration 10 μM, read-out: EC50
Method in brief: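 HepG2.2.15 cells in 2% FBS medium, 40,000 per well, treated 6 days with compound (medium refreshed once), eight 3-fold dilutions from 10 μM top. HBV DNA extracted from culture medium and quantified by q-PCR; EC50 averaged over repeats. Cytotoxicity run in parallel at 5,000 cells per well, top 100 μM, giving CC50.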

HepG2.2.15 cells = assay: Cytotoxicity determination in HepG2.2.15 cells (CCK-8); type: cell-based; details: 6 days of compound treatment, CCK-8, highest concentration 100 μM
Method in brief: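 HepG2.2.15 cells seeded at 5,000 cells/well in 2% FBS medium, incubated overnight at 37° C., then treated 6 days with compounds (8 points, 3-fold dilutions, top 100 μM), medium refreshed once midway. CCK-8 added for 2.5 h; A450 read against 630 nm reference; CC50 calculated, averaged over repeats.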

Row | SMILES | EC50 (HBV) | CC50 (HepG2.2.15 cells) | EC50 (HBV; Hepatitis B virus, HepG2.2.15, 144 h)
1 | COC(=O)C1=C(C2CCN(S(C)(=O)=O)C2)NC(c2nccs2)=NC1c1ccc(F)cc1Cl (single isomer, unassigned) [Compound 65C, 4-(2-Chloro-4-fluoro-phenyl)-6-(1-methanesulfonyl-pyrrolidin-3-yl)-2-thiazol-2-yl-1,4-dihydro-pyrimidine-5-carboxylic Acid Methyl Ester] | 378 nM | 19500 nM | –
2 | COC(=O)C1=C(C2CCN(S(=O)(=O)CC3(C)CCC(C(=O)O)CC3)CC2)NC(c2nccs2)=NC1c1ccc(F)c(F)c1Cl (single isomer, unassigned) [Compound 452B, (trans)-4-(((4-(6-(2-Chloro-3,4-difluorophenyl)-5-(methoxycarbonyl)-2-(thiazol-2-yl)-3,6-dihydropyrimidin-4-yl)piperidin-1-yl)sulfonyl)methyl)-4-methylcyclohexanecarboxylic Acid] | 5 nM | 7700 nM | –
3 | COC(=O)C1=C(C2COC(CO)C2)NC(c2nccs2)=NC1c1cccc(F)c1Cl (single isomer, unassigned) [Compound 219A, Methyl 4-(2-chloro-3-fluorophenyl)-6-(5-(hydroxymethyl)-tetrahydrofuran-3-yl)-2-(thiazol-2-yl)-1,4-dihydropyrimidine-5-carboxylate] | 192 nM | 35300 nM | –
4 | COC(=O)C1=C([C@H]2CC[C@H](NS(C)(=N)=O)CC2)NC(c2nccs2)=NC1c1ccc(F)cc1Cl (single isomer, unassigned) [Compound 287B, Methyl 4-(2-chloro-4-fluorophenyl)-6-((trans)-4-(methylsulfonoimidamido)cyclohexyl)-2-(thiazol-2-yl)-1,4-dihydropyrimidine-5-carboxylate] | – | 23100 nM | 72 nM
5 | CCOC(=O)C1=C([C@@H]2CCC[C@H](C(=O)O)CC2)NC(c2nccs2)=NC1c1ccc(F)c(F)c1Cl (relative stereo) [Compound 302E, (cis)-4-(−6-(2-Chloro-3,4-difluorophenyl)-5-(ethoxycarbonyl)-2-(thiazol-2-yl)-3,6-dihydropyrimidin-4-1)cycloheptanecarboxylic Acid] | 25 nM | 14600 nM | –
6 | COC(=O)C1=C(C2CCN(S(=O)(=O)C3CC(C)(C(=O)OC)C3)CC2)NC(c2nccs2)=NC1c1ccc(F)c(F)c1Cl (single isomer, unassigned) [Compound 323C, trans-methyl 4-(2-chloro-3,4-difluorophenyl)-6-(1-((3-(methoxycarbonyl)-3-methylcyclobutyl)sulfonyl)piperidin-4-yl)-2-(thiazol-2-yl)-1,4-dihydropyrimidine-5-carboxylate] | 10 nM | 24100 nM | –
7 | COC(=O)C1=C(C2CCCN(S(C)(=O)=O)C2)NC(c2nccs2)=NC1c1ccc(F)cc1Cl (single isomer, unassigned) [Compound 33A, Methyl 4-(2-chloro-4-fluorophenyl)-6-(1-(methylsulfonyl)piperidin-3-yl)-2-(thiazol-2-yl)-1,4-dihydropyrimidine-5-carboxylate] | 190 nM | 78100 nM | –
8 | COC(=O)C1=C([C@H]2CC[C@H](NS(C)(=O)=O)CC2)NC(c2ncc(F)cc2F)=NC1c1ccc(F)c(F)c1Cl (stereo partly shown) [Compound 298B] | 17 nM | 13200 nM | –
9 | CCOC(=O)C1=C(C2CCN(S(=O)(=O)C3CC(C)(C(=O)O)C3)CC2)NC(c2nccs2)=NC1c1cccc(F)c1Br (single isomer, unassigned) [Compound 414D, (cis)-3-((4-(6-(2-Bromo-3-fluorophenyl)-5-(ethoxycarbonyl)-2-(thiazol-2-yl)-3,6-dihydropyrimidin-4-yl)piperidin-1-yl)sulfonyl)-1-methylcyclobutanecarboxylic Acid] | 39 nM | 16300 nM | –
10 | COC(=O)C1=C(C2CCN(S(=O)(=O)C3CC(C)(C(=O)O)C3)CC2)NC(c2nccs2)=NC1c1ccc(F)cc1Br (single isomer, unassigned) [Compound 410C, trans-3-((4-(6-(2-Bromo-4-fluorophenyl)-5-(methoxycarbonyl)-2-(thiazol-2-yl)-3,6-dihydropyrimidin-4-yl)piperidin-1-yl)sulfonyl)-1-methylcyclobutanecarboxylic Acid] | 16 nM | 24700 nM | –
11 | CCOC(=O)C1=C(C2CCN(S(=O)(=O)C3CC(C)(C(=O)O)C3)CC2)NC(c2nccs2)=NC1c1ccc(F)cc1Br (single isomer, unassigned) [Compound 282C, (trans)-3-((4-(−6-(2-Bromo-4-fluorophenyl)-5-(ethoxycarbonyl)-2-(thiazol-2-yl)-3,6-dihydropyrimidin-4-yl)piperidin-1-yl)sulfonyl)-1-methylcyclobutanecarboxylic Acid] | 15 nM | 15700 nM | –
12 | COC(=O)C1=C(C2CCOC2)NC(c2nccs2)=NC1c1cccc(F)c1Cl (single isomer, unassigned) [Compound 74D, Methyl 4-(2-chloro-3-fluorophenyl)-6-(tetrahydrofuran-3-yl)-2-(thiazol-2-yl)-1,4-dihydropyrimidine-5-carboxylate] | 303 nM | 84500 nM | –
13 | COC(=O)C1=C(C2CCC(NS(C)(=O)=O)C2)NC(c2nccs2)=NC1c1cccc(F)c1Cl (single isomer, unassigned) [Compound 61G, Methyl 4-(2-chloro-3-fluorophenyl)-6-(3-(methylsulfonamido)-cyclopentyl)-2-(thiazol-2-yl)-1,4-dihydropyrimidine-5-carboxylate] | 423 nM | > 10000 nM | –
14 | COC(=O)C1=C(C2CCC(NC(C)=O)C2)NC(c2nccs2)=NC1c1ccc(F)c(F)c1Cl (single isomer, unassigned) [Compound 300D, Methyl 6-(−3-acetamidocyclopentyl)-4-(2-chloro-3,4-difluorophenyl)-2-(thiazol-2-yl)-1,4-dihydropyrimidine-5-carboxylate] | 14 nM | 12600 nM | –
15 | COC(=O)C1=C(C2CCCN(S(C)(=O)=O)CC2)NC(c2nccs2)=NC1c1ccc(F)cc1Cl (single isomer, unassigned) [Compound 383D, Methyl 4-(2-chloro-4-fluorophenyl)-6-(1-(methylsulfonyl)azepan-4-yl)-2-(thiazol-2-yl)-1,4-dihydropyrimidine-5-carboxylate] | 148 nM | 31500 nM | –
16 | COC(=O)C1=C(C2CCN(S(=O)(=O)C3CC(C)(C(=O)O)C3)CC2)NC(c2nccs2)=NC1c1ccc(F)cc1Cl (stereo not drawn) [Compound 142, (cis)-3-((4-(6-(2-chloro-4-fluorophenyl)-5-(methoxycarbonyl)-2-(thiazol-2-yl)-3,6-dihydropyrimidin-4-yl)piperidin-1-yl)sulfonyl)-1-methylcyclobutane-1-carboxylic Acid] | 89 nM | 37600 nM | –
17 | CCOC(=O)C1=C(C2CCN(S(=O)(=O)C3CC(C)(C(=O)O)C3)CC2)NC(c2nccs2)=NC1c1ccc(F)cc1Br (single isomer, unassigned) [Compound 282D, (cis)-3-((4-(6-(2-Bromo-4-fluorophenyl)-5-(ethoxycarbonyl)-2-(thiazol-2-yl)-3,6-dihydropyrimidin-4-yl)piperidin-1-yl)sulfonyl)-1-methylcyclobutanecarboxylic Acid] | 39 nM | 11200 nM | –
18 | COC(=O)C1=C(C2CCC(NC(C)=O)C2)NC(c2nccs2)=NC1c1cccc(F)c1Cl (single isomer, unassigned) [Compound 62G, Methyl 6-(3-acetamidocyclopentyl)-4-(2-chloro-3-fluorophenyl)-2-(thiazol-2-yl)-1,4-dihydropyrimidine-5-carboxylate] | 119 nM | 37100 nM | –
19 | COC(=O)C1=C(C2CCN(S(N)(=O)=O)CC2)NC(c2nccs2)=NC1c1ccc(F)c(F)c1Cl (stereo not shown) [Compound 416B] | 6 nM | 13500 nM | –
20 | COC(=O)C1=C(C2CCNC(=O)C2)NC(c2nccs2)=NC1c1ccc(F)cc1Cl (single isomer, unassigned) [Compound 3C, Methyl 4-(2-chloro-4-fluorophenyl)-6-(2-oxopiperidin-4-yl)-2-(thiazol-2-yl)-1,4-dihydro-pyrimidine-5-carboxylate] | 132 nM | 5600 nM | –
21 | COC(=O)C1=C(C2CCC(C(=O)O)C2)NC(c2nccs2)=NC1c1ccc(F)cc1Cl (single isomer, unassigned) [Compound 72F, 3-(6-(2-Chloro-4-fluorophenyl)-5-(methoxycarbonyl)-2-(thiazol-2-yl)-3,6-dihydropyrimidin-4-yl)cyclopentanecarboxylic Acid] | 58 nM | 30000 nM | –
22 | COC(=O)C1=C(C2CCN(S(=O)(=O)[C@H]3C[C@H](C(=O)O)C3)CC2)NC(c2nccs2)=NC1c1ccc(F)c(F)c1Cl (single isomer, unassigned) [Compound 232X, (trans)-3-((4-(6-(2-Chloro-3,4-difluorophenyl)-5-(methoxycarbonyl)-2-(thiazol-2-yl)-3,6-dihydropyrimidin-4-yl)piperidin-1-yl)sulfonyl)cyclobutanecarboxylic Acid] | 105 nM | 70000 nM | –
23 | COC(=O)C1=C(C2CCC(NC(C)=O)C2)NC(c2nccs2)=NC1c1cccc(F)c1Cl (single isomer, unassigned) [Compound 62B, Methyl 6-(3-acetamidocyclopentyl)-4-(2-chloro-3-fluorophenyl)-2-(thiazol-2-yl)-1,4-dihydropyrimidine-5-carboxylate] | 63 nM | 22900 nM | –
